Assay results published in US20160108049A1 (TAKEDA Gmbh, priority 2011, published 2016).

Tests used:
human PDE5 = target: T1, human PDE5 (Homo sapiens, UniProt O76074); assay: Inhibition of PDE5 activity (platelet lysate, SPA assay); type: biochemical; settings: 0.5 μM cGMP, read-out: PDE5 Inhibitory values measured as -logIC50 (converted)
T1 construct: from tissue; host or cells: human platelets from fresh donor blood (platelet lysate)
How it was run: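 SPA readout of [3H]cGMP hydrolysis (0.5 μM, 15 min, 37 °C after 5 min preincubation), stopped with yttrium silicate beads containing IBMX. Enzyme was lysate from human platelets, used at 10–20% substrate turnover, with PDE3 (motapizone 1 μM) and PDE2 (10 nM) blockers present. IC50 values fitted non-linearly from concentration-effect curves.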

PDE4B1 = target: T2, PDE4B1 (Homo sapiens, UniProt Q07343); assay: Inhibition of PDE4 activity (PDE4B1, SPA assay); type: biochemical; settings: recombinant PDE4B1, 0.5 μM cAMP; read-out: PDE4B1 Inhibitory values measured as -logIC50 (converted)
T2 construct: made in house; host or cells: SF21 insect cells (baculovirus; virus made in SF9 cells, pCR-Bac vector)
How it was run: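 Read-out is SPA yttrium silicate bead scintillation after IBMX-containing beads stop the reaction. Insect-cell (SF21) lysate enzyme hydrolysed 0.5 μM [3H]cAMP at pH 7.4 with 5 mM Mg2+ for 15 min after a 5 min 37 °C preincubation; IC50 fitted by non-linear regression.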

T2 sequence (Q07343 whole entry): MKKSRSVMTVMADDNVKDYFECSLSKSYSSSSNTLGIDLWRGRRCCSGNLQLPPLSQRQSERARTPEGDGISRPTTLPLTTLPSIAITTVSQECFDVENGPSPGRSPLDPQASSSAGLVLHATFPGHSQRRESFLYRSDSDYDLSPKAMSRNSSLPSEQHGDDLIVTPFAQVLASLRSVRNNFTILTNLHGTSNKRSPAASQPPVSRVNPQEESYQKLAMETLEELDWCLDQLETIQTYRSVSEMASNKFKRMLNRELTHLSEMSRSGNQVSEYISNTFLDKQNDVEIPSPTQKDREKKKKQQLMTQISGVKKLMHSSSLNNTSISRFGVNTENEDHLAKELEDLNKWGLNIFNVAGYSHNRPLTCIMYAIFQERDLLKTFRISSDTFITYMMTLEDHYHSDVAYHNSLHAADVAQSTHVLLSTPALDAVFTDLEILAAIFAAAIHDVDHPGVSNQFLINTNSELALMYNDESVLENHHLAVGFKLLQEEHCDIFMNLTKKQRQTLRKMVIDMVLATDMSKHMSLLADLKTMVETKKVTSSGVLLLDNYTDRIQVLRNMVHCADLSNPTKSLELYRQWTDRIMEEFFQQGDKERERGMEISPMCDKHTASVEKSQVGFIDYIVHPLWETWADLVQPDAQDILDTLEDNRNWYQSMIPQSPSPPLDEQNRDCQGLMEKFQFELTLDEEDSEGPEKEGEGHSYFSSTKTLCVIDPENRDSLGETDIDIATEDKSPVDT

`COc1ccc(C2=NN(C3CCN(C(=O)[C@@H](Cc4ccc(C#N)cc4)NC(=O)c4c[nH]c5c(-c6c(OCC7CC7)ccc7c6OCO7)ncnc45)CC3)C(=O)[C@@H]3CCCC[C@H]23)cc1OC` [Example 16, N-[(2R)-3-(4-cyanophenyl)-1-{4-[(4aS,8aR)-4-(3,4-dimethoxyphenyl)-1-oxo-4a,5,6,7,8,8a-hexahydrophthalazin-2(1H)-yl]piperidin-1-yl}-1-oxopropan-2-yl]-4-[5-(cyclopropylmethoxy)-1,3-benzodioxol-4-yl]-5H-pyrrolo[3,2-d]pyrimidine-7-carboxamide] showed an IC50 (human PDE5) of 1 to 10 nM and an IC50 (PDE4B1) of 1 to 10 nM.
`COc1ccc(C[C@@H](NC(=O)c2c[nH]c3c(-c4c(OCC5CC5)ccc5c4OCO5)ncnc23)C(=O)N2CCC(N3N=C(c4ccc(OC)c(OC)c4)[C@H]4CCCC[C@H]4C3=O)CC2)cc1` [Example 29, 4-[5-(cyclopropylmethoxy)-1,3-benzodioxol-4-yl]-N-[(2R)-1-{4-[(4aS,8aR)-4-(3,4-dimethoxyphenyl)-1-oxo-4a,5,6,7,8,8a-hexahydrophthalazin-2(1H)-yl]piperidin-1-yl}-3-(4-methoxyphenyl)-1-oxopropan-2-yl]-5H-pyrrolo[3,2-d]pyrimidine-7-carboxamide] gave an IC50 (human PDE5) of less than 1 nM and an IC50 (PDE4B1) of 1 to 10 nM.
For `COc1ccc(C2=NN(C3CCN(C(=O)[C@@H](Cc4ccccc4C(F)(F)F)NC(=O)c4c(C)[nH]c5c(-c6c(OCC7CC7)ccc7c6OCO7)ncnc45)CC3)C(=O)[C@@H]3CCCC[C@H]23)cc1OC` [Example 32, 4-[5-(cyclopropylmethoxy)-1,3-benzodioxol-4-yl]-N-{(2R)-1-{4-[(4aS,8aR)-4-(3,4-dimethoxyphenyl)-1-oxo-4a,5,6,7,8,8a-hexahydrophthalazin-2(1H)-yl]piperidin-1-yl}-1-oxo-3-[2-(trifluoromethyl)phenyl]propan-2-yl}-6-methyl-5H-pyrrolo[3,2-d]pyrimidine-7-carboxamide], the IC50 (human PDE5) was 1 to 10 nM and the IC50 (PDE4B1) was 1 to 10 nM.
For `COc1ccc(C[C@H](NC(=O)c2c[nH]c3c(-c4c(OCC5CC5)ccc5c4OCO5)ncnc23)C(=O)N2CCC(N3N=C(c4ccc(OC)c(OC)c4)[C@H]4CCCC[C@H]4C3=O)CC2)cc1OC` [Example 25, 4-[5-(cyclopropylmethoxy)-1,3-benzodioxol-4-yl]-N-[(2S)-3-(3,4-dimethoxyphenyl)-1-{4-[(4aS,8aR)-4-(3,4-dimethoxyphenyl)-1-oxo-4a,5,6,7,8,8a-hexahydrophthalazin-2(1H)-yl]piperidin-1-yl}-1-oxopropan-2-yl]-5H-pyrrolo[3,2-d]pyrimidine-7-carboxamide], the IC50 (human PDE5) was 1 to 10 nM and the IC50 (PDE4B1) was 1 to 10 nM.
Molecule `COc1ccc(C2=NN(C3CCN(C(=O)[C@H](Cc4ccccn4)NC(=O)c4c[nH]c5c(-c6c(OCC7CC7)ccc7c6OCO7)ncnc45)CC3)C(=O)[C@@H]3CCCC[C@H]23)cc1OC` [Example 39, 4-[5-(cyclopropylmethoxy)-1,3-benzodioxol-4-yl]-N-[(2S)-1-{4-[(4aS,8aR)-4-(3,4-dimethoxyphenyl)-1-oxo-4a,5,6,7,8,8a-hexahydrophthalazin-2(1H)-yl]piperidin-1-yl}-1-oxo-3-(pyridin-2-yl)propan-2-yl]-5H-pyrrolo[3,2-d]pyrimidine-7-carboxamide] has an IC50 (human PDE5) of less than 1 nM and an IC50 (PDE4B1) of less than 1 nM.
`COc1ccc(C2=NN(C3CCN(C(=O)[C@H](Cc4cccnc4)NC(=O)c4c[nH]c5c(-c6c(OCC7CC7)ccc7c6OCO7)ncnc45)CC3)C(=O)C3(CCCC3)C2)cc1OC` [Example 125, 4-[5-(cyclopropylmethoxy)-1,3-benzodioxol-4-yl]-N-[(2S)-1-{4-[9-(3,4-dimethoxyphenyl)-6-oxo-7,8-diazaspiro[4.5]dec-8-en-7-yl]piperidin-1-yl}-1-oxo-3-(pyridin-3-yl)propan-2-yl]-5H-pyrrolo[3,2-d]pyrimidine-7-carboxamide] gave an IC50 (human PDE5) of 1 to 10 nM and an IC50 (PDE4B1) of 1 to 10 nM.
Molecule `COc1ccc(C2=NN(C3CCN(C(=O)[C@@H](CCSC)NC(=O)c4c[nH]c5c(-c6c(OCC7CC7)ccc7c6OCO7)ncnc45)CC3)C(=O)[C@@H]3CCCC[C@H]23)cc1OC` [Example 98, 4-[5-(cyclopropylmethoxy)-1,3-benzodioxol-4-yl]-N-[(2R)-1-{4-[(4aS,8aR)-4-(3,4-dimethoxyphenyl)-1-oxo-4a,5,6,7,8,8a-hexahydrophthalazin-2(1H)-yl]piperidin-1-yl}-4-(methylsulfanyl)-1-oxobutan-2-yl]-5H-pyrrolo[3,2-d]pyrimidine-7-carboxamide] has an IC50 (human PDE5) of less than 1 nM and an IC50 (PDE4B1) of less than 1 nM.
`COc1ccc(C2=NN(C3CCN(C(=O)[C@@H](Cc4ccc(F)cc4)NC(=O)c4c[nH]c5c(-c6c(OCC7CC7)ccc7c6OCO7)ncnc45)CC3)C(=O)[C@@H]3CCCC[C@H]23)cc1OC` [Example 28, 4-[5-(cyclopropylmethoxy)-1,3-benzodioxol-4-yl]-N-[(2R)-1-{4-[(4aS,8aR)-4-(3,4-dimethoxyphenyl)-1-oxo-4a,5,6,7,8,8a-hexahydrophthalazin-2(1H)-yl]piperidin-1-yl}-3-(4-fluorophenyl)-1-oxopropan-2-yl]-5H-pyrrolo[3,2-d]pyrimidine-7-carboxamide] was tested, and the IC50 (human PDE5) was less than 1 nM and the IC50 (PDE4B1) was less than 1 nM.
`COc1ccc(C2=NN(C3CCN(C(=O)[C@H](Cc4ccccc4)NC(=O)c4c[nH]c5c(-c6c(OCC7CC7)ccc7c6OCO7)ncnc45)CC3)C(=O)[C@@H]3CCCC[C@H]23)cc1OC` [Example 36, 4-[5-(cyclopropylmethoxy)-1,3-benzodioxol-4-yl]-N-[(2S)-1-{4-[(4aS,8aR)-4-(3,4-dimethoxyphenyl)-1-oxo-4a,5,6,7,8,8a-hexahydrophthalazin-2(1H)-yl]piperidin-1-yl}-1-oxo-3-phenylpropan-2-yl]-5H-pyrrolo[3,2-d]pyrimidine-7-carboxamide] gave an IC50 (human PDE5) of 1 to 10 nM and an IC50 (PDE4B1) of 1 to 10 nM.
With `COc1ccc(C2=NN(C3CCN(C(=O)[C@@H](Cc4cc(F)cc(F)c4)NC(=O)c4c[nH]c5c(-c6c(OCC7CC7)ccc7c6OCO7)ncnc45)CC3)C(=O)[C@@H]3CCCC[C@H]23)cc1OC` [Example 1, 4-[5-(cyclopropylmethoxy)-1,3-benzodioxol-4-yl]-N-[(2R)-3-(3,5-difluorophenyl)-1-{4-[(4aS,8aR)-4-(3,4-dimethoxyphenyl)-1-oxo-4a,5,6,7,8,8a-hexahydrophthalazin-2(1H)-yl]piperidin-1-yl}-1-oxopropan-2-yl]-5H-pyrrolo[3,2-d]pyrimidine-7-carboxamide] the IC50 (human PDE5) was 1 to 10 nM and the IC50 (PDE4B1) was less than 1 nM.
Work on `COc1ccc(C2=NN(C3CCN(C(=O)[C@H](Cc4cccnc4)NC(=O)c4c[nH]c5c(-c6c(OCC7CC7)ccc7c6OCO7)ncnc45)CC3)C(=O)C(C)(C)C2)c2c1OC(C)(C)C2` [Example 114, 4-[5-(cyclopropylmethoxy)-1,3-benzodioxol-4-yl]-N-[(2S)-1-{4-[3-(7-methoxy-2,2-dimethyl-2,3-dihydro-1-benzofuran-4-yl)-5,5-dimethyl-6-oxo-5,6-dihydropyridazin-1(4H)-yl]piperidin-1-yl}-1-oxo-3-(pyridin-3-yl)propan-2-yl]-5H-pyrrolo[3,2-d]pyrimidine-7-carboxamide] yielded an IC50 (human PDE5) of less than 1 nM and an IC50 (PDE4B1) of 1 to 10 nM.
Molecule `COc1ccc(C2=NN(C3CCN(C(=O)[C@@H](Cc4ccc(C(N)=O)cc4)NC(=O)c4c[nH]c5c(-c6c(OCC7CC7)ccc7c6OCO7)ncnc45)CC3)C(=O)[C@@H]3CCCC[C@H]23)cc1OC` [Example 7, N-[(2R)-3-(4-carbamoylphenyl)-1-{4-[(4aS,8aR)-4-(3,4-dimethoxyphenyl)-1-oxo-4a,5,6,7,8,8a-hexahydrophthalazin-2(1H)-yl]piperidin-1-yl}-1-oxopropan-2-yl]-4-[5-(cyclopropylmethoxy)-1,3-benzodioxol-4-yl]-5H-pyrrolo[3,2-d]pyrimidine-7-carboxamide] has an IC50 (human PDE5) of less than 1 nM and an IC50 (PDE4B1) of 1 to 10 nM.
Molecule `COc1ccc(C2=NN(C3CCN(C(=O)[C@@H](Cc4ccccc4C(F)(F)F)NC(=O)c4c[nH]c5c(-c6c(OCC7CC7)ccc7c6OCO7)ncnc45)CC3)C(=O)[C@@H]3CCCC[C@H]23)cc1OC` [Example 33, 4-[5-(cyclopropylmethoxy)-1,3-benzodioxol-4-yl]-N-{(2R)-1-{4-[(4aS,8aR)-4-(3,4-dimethoxyphenyl)-1-oxo-4a,5,6,7,8,8a-hexahydrophthalazin-2(1H)-yl]piperidin-1-yl}-1-oxo-3-[2-(trifluoromethyl)phenyl]propan-2-yl}-5H-pyrrolo[3,2-d]pyrimidine-7-carboxamide] has an IC50 (human PDE5) of less than 1 nM and an IC50 (PDE4B1) of 1 to 10 nM.
For `COc1ccc(C2=NN(C3CCN(C(=O)[C@@H](Cc4ccc(C)cc4)NC(=O)c4c(C)[nH]c5c(-c6c(OCC7CC7)ccc7c6OCO7)ncnc45)CC3)C(=O)[C@@H]3CCCC[C@H]23)cc1OC` [Example 15, 4-[5-(cyclopropylmethoxy)-1,3-benzodioxol-4-yl]-N-[(2R)-1-{4-[(4aS,8aR)-4-(3,4-dimethoxyphenyl)-1-oxo-4a,5,6,7,8,8a-hexahydrophthalazin-2(1H)-yl]piperidin-1-yl}-3-(4-methylphenyl)-1-oxopropan-2-yl]-6-methyl-5H-pyrrolo[3,2-d]pyrimidine-7-carboxamide], the IC50 (human PDE5) was 1 to 10 nM and the IC50 (PDE4B1) was less than 1 nM.
`COc1ccc(C2=NN(C3CCN(C(=O)[C@@H](Cc4cccc(Cl)c4)NC(=O)c4c[nH]c5c(-c6c(OCC7CC7)ccc7c6OCO7)ncnc45)CC3)C(=O)[C@@H]3CCCC[C@H]23)cc1OC` [Example 30, N-[(2R)-3-(3-chlorophenyl)-1-{4-[(4aS,8aR)-4-(3,4-dimethoxyphenyl)-1-oxo-4a,5,6,7,8,8a-hexahydrophthalazin-2(1H)-yl]piperidin-1-yl}-1-oxopropan-2-yl]-4-[5-(cyclopropylmethoxy)-1,3-benzodioxol-4-yl]-5H-pyrrolo[3,2-d]pyrimidine-7-carboxamide] gave an IC50 (human PDE5) of 1 to 10 nM and an IC50 (PDE4B1) of 1 to 10 nM.
